Source: patent publication US20250154138A1, “Small Molecule IL-17A Modulators” (BeiGene, Ltd., priority 2022, published 2025)

Columns and labels:
[1] = system: IL-17-induced GROα secretion from HT-29 cells; test: GROα release assay in human colorectal adenocarcinoma epithelial cell (HT-29, ELISA); assay type: cell-based; details: Homo sapiens, HT-29, 48 h, 10 ng/mL IL-17A, highest concentration 10 μM, read-out: Cellular assay HT29 cell/CXCL1 IC50
How it was run: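 HT-29 cells were exposed 48 h at 37°C to IL-17A (final 10 ng/mL) preincubated 15 min with compound (4-fold dilutions, top 10 μM). Secreted GROα was quantified by ELISA against a standard curve, and IC50 obtained by four-parameter fitting.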

[2] = biological target: human IL-17A / human IL-17RA (Homo sapiens (Human), UniProt Q16552); test: Human IL-17A biochemical assay (HTRF, blocking of IL-17A binding to IL-17RA); details: 0.4 nM IL-17A, 0.3 nM IL-17RA, max compound concentration 10 uM
Chain of human IL-17A / human IL-17RA (Q16552 24-155): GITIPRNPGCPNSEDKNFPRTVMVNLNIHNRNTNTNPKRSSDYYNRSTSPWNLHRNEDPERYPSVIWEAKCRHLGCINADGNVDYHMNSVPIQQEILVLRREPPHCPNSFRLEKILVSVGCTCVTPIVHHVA
How it was run: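 0.4 nM hIL-17A + cpd (10 uM top, 2.7x, 10 pt), 3 h RT, HEPES pH 7.5 buffer w/ BSA, DTT, Tween 20; + 0.3 nM hIL-17RA 1 h RT; Tb/XL665 Abs 1 h; HTRF 620/665 ratio; 4PL IC50.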

Row | SMILES | IC50 [1] | IC50 [2]
1 | CCC1CCC(C(NC(=O)c2ccnn2C)C(=O)Nc2ccc3c(c2)CC(C(=O)NC)(N2C[C@@H](C(C)C)NC2=O)C3)CC1 (stereo partly drawn) [Example 101, N-(1-(4-ethylcyclohexyl)-2-((2-((R)-4-isopropyl-2-oxoimidazolidin-1-yl)-2-(methylcarbamoyl)-2,3-dihydro-1H-inden-5-yl)amino)-2-oxoethyl)-1-methyl-1H-pyrazole-5-carboxamide] | 45.2 nM | 7.5 nM
2 | CNC(=O)C1(N2CC3(CC3)CNC2=O)Cc2ccc(NC(=O)[C@@H](NC(=O)c3ccnn3C)C3CCCCC3)cc2C1 (stereo partly drawn) [Example 102, N-((1S)-1-cyclohexyl-2-((2-(methylcarbamoyl)-2-(6-oxo-5,7-diazaspiro[2.5]octan-5-yl)-2,3-dihydro-1H-inden-5-yl)amino)-2-oxoethyl)-1-methyl-1H-pyrazole-5-carboxamide] | 17.3 nM | 9.5 nM
3 | CNC(=O)C1(N2C[C@@H](C(C)C)NC2=O)Cc2ccc(NC(=O)C(NC(=O)c3ccnn3C)C3CCCC(C)C3)cc2C1 (stereo partly drawn) [Example 104, N-(2-((2-((R)-4-isopropyl-2-oxoimidazolidin-1-yl)-2-(methylcarbamoyl)-2,3-dihydro-1H-inden-5-yl)amino)-1-(3-methylcyclohexyl)-2-oxoethyl)-1-methyl-1H-pyrazole-5-carboxamide] | 23.6 nM | 12 nM
4 | CCC1(C)CNC(=O)N(C2(C(=O)NC)Cc3ccc(NC(=O)[C@@H](NC(=O)c4ccnn4C)C4CCCCC4)cc3C2)C1 (stereo partly drawn) [Example 105, N-((1S)-1-cyclohexyl-2-((2-(5-ethyl-5-methyl-2-oxotetrahydropyrimidin-1(2H)-yl)-2-(methylcarbamoyl)-2,3-dihydro-1H-inden-5-yl)amino)-2-oxoethyl)-1-methyl-1H-pyrazole-5-carboxamide] | 55.5 nM | 15 nM
5 | CC#CCC1CN(C2(C(=O)NC)Cc3ccc(NC(=O)[C@@H](NC(=O)c4ccnn4C)C4CCCCC4)cc3C2)C(=O)N1 (stereo partly drawn) [Example 106, N-((1S)-2-((2-(4-(but-2-yn-1-yl)-2-oxoimidazolidin-1-yl)-2-(methylcarbamoyl)-2,3-dihydro-1H-inden-5-yl)amino)-1-cyclohexyl-2-oxoethyl)-1-methyl-1H-pyrazole-5-carboxamide] | 202 nM | 48 nM
6 | CC(C)[C@@H]1CN(C2(C(=O)NC(CO)C3CCCC3)Cc3ccc(NC(=O)[C@@H](NC(=O)c4ccnn4C)C4CCCCC4)cc3C2)C(=O)N1 (stereo partly drawn) [Example 107, N-((1S)-1-cyclohexyl-2-((2-((1-cyclopentyl-2-hydroxyethyl)carbamoyl)-2-((R)-4-isopropyl-2-oxoimidazolidin-1-yl)-2,3-dihydro-1H-inden-5-yl)amino)-2-oxoethyl)-1-methyl-1H-pyrazole-5-carboxamide] | 34.5 nM | 25 nM
7 | CNC(=O)C1(N2CC3(CCC3)CNC2=O)Cc2ccc(NC(=O)[C@@H](NC(=O)c3ccnn3C)C3CCCCC3)cc2C1 (stereo partly drawn) [Example 108, N-((1S)-1-cyclohexyl-2-((2-(methylcarbamoyl)-2-(7-oxo-6,8-diazaspiro[3.5]nonan-6-yl)-2,3-dihydro-1H-inden-5-yl)amino)-2-oxoethyl)-1-methyl-1H-pyrazole-5-carboxamide] | 42.3 nM | 5.8 nM
8 | CNC(=O)C1(N2CC3(CCC3)CNC2=O)Cc2ccc(NC(=O)[C@@H](NC(=O)c3nonc3C)C3CCCCC3)cc2C1 (stereo partly drawn) [Example 110, N-((1S)-1-cyclohexyl-2-((2-(methylcarbamoyl)-2-(7-oxo-6,8-diazaspiro[3.5]nonan-6-yl)-2,3-dihydro-1H-inden-5-yl)amino)-2-oxoethyl)-4-methyl-1,2,5-oxadiazole-3-carboxamide] | 76.5 nM | 15 nM
9 | CNC(=O)C1(N2C[C@@H](C(C)C)NC2=O)Cc2ccc(NC(=O)C(NC(=O)c3ccnn3C)C3C4CC5CC(C4)CC3C5)cc2C1 (stereo partly drawn) [Example 111, N-(1-((1R,3S,5R,7R)-adamantan-2-yl)-2-((2-((R)-4-isopropyl-2-oxoimidazolidin-1-yl)-2-(methylcarbamoyl)-2,3-dihydro-1H-inden-5-yl)amino)-2-oxoethyl)-1-methyl-1H-pyrazole-5-carboxamide] | 112 nM | 55 nM
10 | CNC(=O)C1(N2C[C@@H](C(C)C)NC2=O)Cc2ccc(NC(=O)C(NC(=O)c3ccnn3C)C3CCC4(CC3)CC4)cc2C1 (stereo partly drawn) [Example 112, N-(2-((2-((R)-4-isopropyl-2-oxoimidazolidin-1-yl)-2-(methylcarbamoyl)-2,3-dihydro-1H-inden-5-yl)amino)-2-oxo-1-(spiro[2.5]octan-6-yl)ethyl)-1-methyl-1H-pyrazole-5-carboxamide] | 181 nM | 41 nM
11 | CNC(=O)C1(N2CC(C)(C3CC3)CNC2=O)Cc2ccc(NC(=O)[C@@H](NC(=O)c3ccnn3C)C3CCCCC3)cc2C1 (stereo partly drawn) [Example 113, N-((1S)-1-cyclohexyl-2-((2-(5-cyclopropyl-5-methyl-2-oxotetrahydropyrimidin-1(2H)-yl)-2-(methylcarbamoyl)-2,3-dihydro-1H-inden-5-yl)amino)-2-oxoethyl)-1-methyl-1H-pyrazole-5-carboxamide] | 457 nM | 53 nM
12 | CNC(=O)C1(N2CC3(CC3)CNC2=O)Cc2ccc(NC(=O)[C@@H](NC(=O)c3ccnn3C)C(C3CC3)C3CC3)cc2C1 (stereo partly drawn) [Example 114, N-((2S)-1,1-dicyclopropyl-3-((2-(methylcarbamoyl)-2-(6-oxo-5,7-diazaspiro[2.5]octan-5-yl)-2,3-dihydro-1H-inden-5-yl)amino)-3-oxopropan-2-yl)-1-methyl-1H-pyrazole-5-carboxamide] | 57.2 nM | 73.9 nM
13 | CNC(=O)C1(N2CC3(CC3)CNC2=O)Cc2ccc(NC(=O)[C@@H](NC(=O)c3ccnn3C(C)C)C(C3CC3)C3CC3)cc2C1 (stereo partly drawn) [Example 115, N-((2S)-1,1-dicyclopropyl-3-((2-(methylcarbamoyl)-2-(6-oxo-5,7-diazaspiro[2.5]octan-5-yl)-2,3-dihydro-1H-inden-5-yl)amino)-3-oxopropan-2-yl)-1-isopropyl-1H-pyrazole-5-carboxamide] | 72.4 nM | 258 nM
14 | CNC(=O)C1(N2C[C@@H](C(C)C)NC2=O)Cc2ccc(NC(=O)[C@@H](NC(=O)c3nonc3C)C3CCC(F)(F)CC3)cc2C1 (stereo partly drawn) [Example 116, N-((1S)-1-(4,4-difluorocyclohexyl)-2-((2-((R)-4-isopropyl-2-oxoimidazolidin-1-yl)-2-(methylcarbamoyl)-2,3-dihydro-1H-inden-5-yl)amino)-2-oxoethyl)-4-methyl-1,2,5-oxadiazole-3-carboxamide] | 415 nM | 69.1 nM
15 | CNC(=O)C1(N2C[C@@H](C(C)C)NC2=O)Cc2cc(NC(=O)[C@@H](NC(=O)c3ccnn3C)C3CCCCC3)cnc2C1 (stereo partly drawn) [Example 117, 3-((S)-2-cyclohexyl-2-(1-methyl-1H-pyrazole-5-carboxamido)acetamido)-6-((R)-4-isopropyl-2-oxoimidazolidin-1-yl)-N-methyl-6,7-dihydro-5H-cyclopenta[b]pyridine-6-carboxamide] | 1060 nM | 925 nM
16 | CNC(=O)C1(N2C[C@@H](C(C)C)NC2=O)Cc2ccc(NC(=O)C(NC(=O)c3ccnn3C)C3CCC(C(C)(C)C)CC3)cc2C1 (stereo partly drawn) [Example 118, N-(1-(4-(tert-butyl)cyclohexyl)-2-((2-((R)-4-isopropyl-2-oxoimidazolidin-1-yl)-2-(methylcarbamoyl)-2,3-dihydro-1H-inden-5-yl)amino)-2-oxoethyl)-1-methyl-1H-pyrazole-5-carboxamide] | 581 nM | 192 nM
17 | CNC(=O)C1(N2C[C@@H](C(C)C)NC2=O)Cc2cc(F)c(NC(=O)[C@@H](NC(=O)c3ccnn3C)C3CCCCC3)cc2C1 (stereo partly drawn) [Example 119, N-((1S)-1-cyclohexyl-2-((6-fluoro-2-((R)-4-isopropyl-2-oxoimidazolidin-1-yl)-2-(methylcarbamoyl)-2,3-dihydro-1H-inden-5-yl)amino)-2-oxoethyl)-1-methyl-1H-pyrazole-5-carboxamide] | 144 nM | 73 nM
18 | CNC(=O)C1(N2CC3(CCC3)CNC2=O)Cc2ccc(NC(=O)[C@@H](NC(=O)c3ccnn3C)C(C3CC3)C3CC3)cc2C1 (stereo partly drawn) [Example 120, N-((2S)-1,1-dicyclopropyl-3-((2-(methylcarbamoyl)-2-(7-oxo-6,8-diazaspiro[3.5]nonan-6-yl)-2,3-dihydro-1H-inden-5-yl)amino)-3-oxopropan-2-yl)-1-methyl-1H-pyrazole-5-carboxamide] | 72.4 nM | 19 nM
19 | CC(C)[C@@H]1CN(C2(C(=O)N[C@H](CO)C3CCCCC3)Cc3ccc(NC(=O)[C@@H](NC(=O)c4ccnn4C)C4CCCCC4)cc3C2)C(=O)N1 (stereo partly drawn) [Example 121, N-((1S)-1-cyclohexyl-2-((2-(((S)-1-cyclohexyl-2-hydroxyethyl)carbamoyl)-2-((R)-4-isopropyl-2-oxoimidazolidin-1-yl)-2,3-dihydro-1H-inden-5-yl)amino)-2-oxoethyl)-1-methyl-1H-pyrazole-5-carboxamide] | 32.3 nM | 16 nM
20 | CC(C)[C@@H]1CN(C2(C(=O)N[C@@H](CO)C3CCCCC3)Cc3ccc(NC(=O)[C@@H](NC(=O)c4ccnn4C)C4CCCCC4)cc3C2)C(=O)N1 (stereo partly drawn) [Example 122, N-((1S)-1-cyclohexyl-2-((2-(((R)-1-cyclohexyl-2-hydroxyethyl)carbamoyl)-2-((R)-4-isopropyl-2-oxoimidazolidin-1-yl)-2,3-dihydro-1H-inden-5-yl)amino)-2-oxoethyl)-1-methyl-1H-pyrazole-5-carboxamide] | 13 nM | 10 nM
